The source of these data is US20220241259A1, “COMPOSITIONS AND METHODS USING TRIGONELLINE AND VITAMINS FOR PREVENTING OR TREATING CONDITIONS OR DISORDERS IN SKELETAL MUSCLE” (SOCIETE DES PRODUITS NESTLE S.A., priority 2019, published 2022).

Test [1] deals with Human Skeletal Muscle Myotubes (HSMM). The conditions noted are these: 6 h. As to the method:
Human primary myoblasts from two different donors were seeded in 6 well plates at a density of 200′000 cells per well in skeletal muscle growth medium (SKM-M, AMSbio). After one day, the differentiation was induced by a medium change for 4 days using differentiation culture medium (Gibco No. 31330-028). Cells were treated with isotopically labelled trigonelline (^13C carbonyl; 3^2H on methyl) for 6 h.
Cell extracts were separated on a Vanquish UHPLC+ focused LC system (Thermo Scientific) with a hydrophilic liquid chromatography (HILIC) iHILIC-Fusion(P) column (Hilicon) carrying the dimensions 150×2.1 mm, 5 μm and a guard column (iHILIC-fusion(P), Hilicon) in front. The separation of metabolites was achieved by applying a linear solvent gradient in normal phase at 0.25 mL/min flow rate and 35° C. of temperature. As mobile phase, solvent A was water with 10 mM ammonium acetate and 0.04% (v/v) ammonium hydroxide, pH ˜9.3, and solvent B was acetonitrile.
The eluting metabolites were analyzed with an Orbitrap Fusion Lumos mass spectrometer (Thermo Scientific) with a heated electrospray ionization (H-ESI) source in positive and negative mode at a resolution of 60,000 at m/z of 200. Instrument control and data analysis were conducted using Xcalibur (Thermo Scientific).

Test [2] has as its system RW1596 (myo-3p::GFP) worms. Conditions: 1 mM trigonelline chloride, 11 day old worms vs age matched control. As to the method: RW1596 (myo-3p::GFP) worms were collected at Day 1 (young adults) and at Day 11 (aged animals) for muscle integrity assessment. Worms were immobilized with tetramisole and analyzed by confocal microscopy, to assess the muscle fibers morphology shown by GFP fluorescence imaging. Trigonelline treatment with 1 mM trigonelline chloride and experimental measurements were started at Day 1 of wild type N2 worm adulthood, in a regimen of chronic exposure till experiments termination.

In another test the test system is wild type N2 worms. The conditions noted are these: 1 mM trigonelline chloride, day 8 old worms (FIG. 8). As to the method:
Absolute quantification of the mtDNA copy number in wild type N2 worms was performed by real-time PCR. Relative values for nduo-1, and act-1 were compared within each sample to generate a ratio representing the relative level of mitochondrial DNA per nuclear genome. The average of at least two technical repeats was used for each biological data point. Each experiment was performed on at least ten independent biological samples (individual worms). Trigonelline treatment with 1 mM trigonelline chloride and experimental measurements were started at Day 1 of wild type N2 worm adulthood, in a regimen of chronic exposure till experiments termination.

Test [3] concerns C. elegans. The conditions noted are these: 1 mM, chronic exposure from Day 1 adulthood (FIG. 7A). As to the method: Worm lifespan tests were performed using about 100 animals per condition and scored manually every other day. Trigonelline treatment and experimental measurements were started at Day 1 of wild type N2 worm adulthood, in a regimen of chronic exposure till experiments termination.

Test [4] deals with C. elegans. Conditions: 1 mM. As to the method: C. elegans mobility test was performed using the Movement Tracker software (Mouchiroud, L. et al. Curr Protoc Neurosci 77, 8.37.1-8.37.21 (2016)). The experiments were repeated at least twice. Trigonelline treatment and experimental measurements were started at Day 1 of wild type N2 worm adulthood, in a regimen of chronic exposure till experiments termination.

For test [5], the system named is C. elegans. The conditions noted are these: 1 mM, day 8 and day 11 old worms (FIG. 7D). The source says: 45 to 60 worms per condition were manually scored for mobility after poking. Worms that were unable to respond to any repeated stimulation were scored as dead. […] Trigonelline treatment and experimental measurements were started at Day 1 of wild type N2 worm adulthood, in a regimen of chronic exposure til experiments termination.

Test [6] concerns Human Skeletal Muscle Myotubes (HSMM). Kind of test: Colorimetric NAD+ quantification in differentiated human primary myoblasts. It counts as cell-based. The conditions noted are these: 16 h, different doses, compared to the control (FIG. 4). As to the method: After one day, the differentiation is induced by a medium change for 4 days. Cells were treated with synthetic trigonelline monohydrate (FIG. 4A) or with Fenugreek seed extract enriched in trigonelline containing 40.45% trigonelline (FIG. 4B) for 16 h at difference doses. NAD+ was measured using colorimetric NAD+ quantification assay (Biovision NAD+/NADH Quantitation Colorimetric Kit #k337-100).

The next test has as its system C57BL/6JRj male mice. Kind of test: Liver NAD+ in mice after oral gavage. It counts as in vivo. The conditions noted are these: equimolar of 300 mg/kg trigonelline, 120 minutes, compared to the control (FIG. 5). As to the method:
10 weeks C57BL/6JRj male mice received trigonelline (sigma #T5509) or fenugreek seed extract enriched in trigonelline (40.45% trigonelline) by oral gavage (equimolar of 300 mg/kg trigonelline, n=8/group). After 120 minutes treatment, the liver was harvested and flash frozen in liquid nitrogen. NAD+ was measured in liver using an enzymatic method adapted from Dall, M., et al., Mol Cell Endocrinol, 2018. 473: p. 245-256.

Consider `C[n+]1cccc(C(=O)[O-])c1` [trigonelline, 1-methylpyridin-1-ium-3-carboxylate], for which, in test [1] (500 μm, HSMM from 2 donors, LC-MS, relative to control (FIG. 2A)), the “NAD+ relative concentration” value was “enhancement of NAD+”. In test [2], the “myofibrillar structure (GFP-tagged myosin)” value is recorded as “improved more organized myofibrillar structure”. For the same compound, the “mitochondrial (nduo-1) relative to nuclear (act-1) DNA ratio” value with wild type N2 worms was “higher than in the control group”.

In turn, `C[n+]1cccc(C(=O)O)c1` [trigonelline chloride] yielded a lifespan increase in the test with C. elegans [3] of 21%. Moreover, in the test with C. elegans [4] (advanced aging phase, compared to control (FIG. 7C)), the “distance travelled during spontaneous mobility assay” value is “significantly increased”. The “mean speed during spontaneous mobility assay” value in the test on C. elegans [4] (from day 1 adulthood, compared to control (FIG. 7B)) is on record as “increased the mean speed”. Also, the “stimulated mobility score (percentage of worms responsive to a physical stimulus)” value in the test with C. elegans [5] is recorded as “more responsive to a physical stimulus than the control”.

Turning to `[2H]C([2H])([2H])[n+]1cccc([13C](=O)[O-])c1` [labelled trigonelline], in test [1] (labelled trigonelline 500 μm, vs naturally occurring NAD+ control (FIG. 2B)), the “relative abundance of labelled NAD+ (M+ 1)” value was “increase in relative abundance of labelled NAD+ (M+ 1)”.

Turning to `C[n+]1cccc(C(=O)O)c1.[OH-]` [chemically synthesized trigonelline], the “NAD+ content” value in test [6] was “significant increase”. The “NAD+ content in the liver” value in the test with C57BL/6JRj male mice was “significant increase”.
